{"source": "patent US6120997A", "about": "“Nucleic acid binders having an hydroxyamine motif” (The Scripps Research Institute, priority 1998, dated 2000)", "key": {"AS-wt": {"test_system": "AS-wt", "experiment": "SPR binding of aminoglycosides to decoding region A-site model AS-wt", "set-up": "species or system E. coli", "details": "for specificity for AS-wt over negative controls (in words): Example 5, HBS-buffer", "description": "The RNA binding properties of 100-800 were analyzed using a surface plasmon resonance based assay that was recently developed in these laboratories. This assay allows the determination of both affinity and specificity of small molecule-RNA interactions. For the analysis, the compounds were injected over a matrix containing RNA that was immobilized through a biotin tag and the equilibrium binding values were recorded at various concentrations.\nNon-linear curve fitting was then used to determine the values of the dissociation constants (KD). The specificity of binding, i.e. the ability to discriminate between different RNA sequences was evaluated by comparing the binding to the target sequence (AS-wt) and the negative control (AS-U1495A). The ratio of KD(AS-U1495A) to KD(AS-wt) was taken to be a representation of the specificity of the binding event.\n(§1) For the quantitative measurement of aminoglycoside binding to these sequences, we utilized our recently developed SPR-based assay. Biotinylated derivatives of all sequences were prepared by in vitro transcription in the presence of guanosine 5'-monophosphorothioate followed by alkylation with a biotin iodoacetamide derivative. The RNA conjugates were then immobilized onto streptavidin coated SPR-sensorchips for analysis.\n(§2) In the same manner as illustrated for paromomycin, a panel of aminoglycosides was screened and the results are compiled in the table of FIGS. 46 and 47. In addition to the naturally occuring aminoglycoside antibiotics, some of the compounds in FIG. 46 are synthetically derived, unnatural aminoglycosides. The number of independent determinations for each dissociation constant ranged from 1-3. […] All data were recorded under near physiological salt conditions (HBS-buffer: 150 mM NaCl, 10 mM HEPES, pH7.4, 3.4 mM EDTA) unless noted otherwise. Data points were taken at concentrations ranging from […]. Below this concentration range, surface transport limitations prevent the attainment of equilibrium.\nPlasmon resonance and antimicrobial testing for Example 4. Synthesis of the biotinylated RNA and surface plasmon resonance detected binding experiments were performed as described vida supra. Solution conditions: 150 mM NaCl, 10 mM HEPES (pH 7.4), 3.4 mM EDTA. KD determination from the binding curves.\nThe fitting routine of the program kaleidagraph was used for all calculations. The starting values for a and b were set to 1 and 0 respectively. The number of KD values used in the fitting was adjusted depending on the observed range of equivalents bound but generally varied from 3 to 4.\nGeneral Procedures for SPR Binding Studies done in Example 5. Samples were prepared by serial dilutions from stock solutions in RNase free microfuge tubes (Ambion) and were centrifuged at 14000 rpm for degassing. Unless otherwise noted, all binding studies were carried out using HBS buffer (Pharmacia Biosensor AB) which was used as obtained. All procedures for binding studies were automated as methods using repetitive cycles of sample injection and regeneration. Typically, buffer was injected in the first two cycles to establish a stable baseline value. Samples were injected at a flowrate of […] using either the KINJECT command. All aminoglycoside samples were injected from autoclaved 7 mm plastic vials that were capped with pierceable plastic crimp caps. To minimize carry over, samples were injected in order of increasing concentration. The running buffer was identical to the injection buffer. Expected values for the equilibrium response of one equivalent of analyte were calculated from the relative molecular weight of the analyte and the immobilized RNA ligand in each flowcells and adjusted with a correction factor of 0.76 which arises from the different molar refractive indices of RNA and the analyte. […]"}, "Neo16-bd": {"biological_target": "Neo16-bd", "experiment": "SPR binding of aminoglycosides to Neo16-bd aptamer", "description": "Conditions: 10 mM HEPES (pH 7.4), 0.1 mM EDTA and NaCl as indicated.\nThe binding of aminoglycosides to RNA is likely to involve substantial ionic contributions and therefore should be strongly influenced by competing buffer ions. […] We studied the salt dependence of neomycin B binding to RBE3, RBE3-neg and Neo16-bd (FIG. 14) by varying the concentration of NaCl included in the injection buffer (10 mM HEPES, pH 7.4, 0.1 mM EDTA). […] This neomycin binding motif was obtained by in vitro selection under conditions of high ionic strength.\nTo further improve our understanding of specific aminoglycoside recognition, we have also included an artificial aminoglycoside receptor that was evolved in vitro to recognize an aminoglycoside. A number of RNA aptamers for small molecules have been reported in recent years. Among them are aptamers that recognize the aminoglycosides tobramycin, lividomycin and kanamycin.\nFor comparison, the corresponding values for AS-wt are also included.\nGeneral Procedures for SPR Binding Studies done in Example 5. Samples were prepared by serial dilutions from stock solutions in RNase free microfuge tubes (Ambion) and were centrifuged at 14000 rpm for degassing. Unless otherwise noted, all binding studies were carried out using HBS buffer (Pharmacia Biosensor AB) which was used as obtained. All procedures for binding studies were automated as methods using repetitive cycles of sample injection and regeneration. Typically, buffer was injected in the first two cycles to establish a stable baseline value. Samples were injected at a flowrate of […] using either the KINJECT command. All aminoglycoside samples were injected from autoclaved 7 mm plastic vials that were capped with pierceable plastic crimp caps. To minimize carry over, samples were injected in order of increasing concentration. The running buffer was identical to the injection buffer."}, "AS-U1406A": {"test_system": "AS-U1406A", "experiment": "SPR binding of aminoglycosides to AS-U1406A", "details": "Example 5, HBS-buffer", "excerpt": "To understand the specificity of ribosomal RNA recognition by the various aminoglycosides, we decided to investigate their binding to AS-wt and compare the results to a series of control mutants which have likewise been characterized by footprinting (FIG. 44). These include the negative controls AS-U1495A, AS-DA1492 and AS-res. […] In AS-U1495A a critical hydrogen bond acceptor which interacts with N1 of the 2-deoxystreptamine ring has been removed. The mutation DA1492 destroys the bulged pocket in which paromomycin ring II (the glucose ring) is positioned. Finally, in the AS-res mutant the G1491:C1409 base pair which creates the floor of the binding pocket is disrupted by replacing it with a C1491:U1409 mismatch. Breaking up this critical base pair in the E. coli 16S ribosomal RNA causes resistance to a broad range of aminoglycosides. In contrast to these negative controls, the mutant hairpin AS-U1406A still contains all necessary elements for specific aminoglycoside recognition and binds paromomycin with wild type specificity.\nas §1, §2\nGeneral Procedures for SPR Binding Studies done in Example 5. Samples were prepared by serial dilutions from stock solutions in RNase free microfuge tubes (Ambion) and were centrifuged at 14000 rpm for degassing. Unless otherwise noted, all binding studies were carried out using HBS buffer (Pharmacia Biosensor AB) which was used as obtained. All procedures for binding studies were automated as methods using repetitive cycles of sample injection and regeneration. Typically, buffer was injected in the first two cycles to establish a stable baseline value. Samples were injected at a flowrate of […] using either the KINJECT command. All aminoglycoside samples were injected from autoclaved 7 mm plastic vials that were capped with pierceable plastic crimp caps. To minimize carry over, samples were injected in order of increasing concentration. The running buffer was identical to the injection buffer. Expected values for the equilibrium response of one equivalent of analyte were calculated from the relative molecular weight of the analyte and the immobilized RNA ligand in each flowcells and adjusted with a correction factor of 0.76 which arises from the different molar refractive indices of RNA and the analyte. Binding constants were calculated by fitting the recorded binding isotherm (equivalents bound vs, concentration) to a model with n independent binding constants using the fitting program provided in the program Kaleidagraph (Macintosh)."}}, "data": [{"molecule": "CN[C@@H]1[C@@H](O[C@H]2O[C@H](CO)[C@@H](N)[C@H](O)[C@H]2O)OC2C[C@@H](N)[C@@H](O[C@H]3[C@H](O)[C@@H](O)[C@H](N)C[C@@H]3N)OC2[C@@H]1O", "note": "(some centres unmarked) [Apramycin]", "values": [{"measurement": "specificity for AS-wt over negative controls (in words)", "setting": "AS-wt", "result": "only marginal if any specificity for AS-wt"}]}, {"molecule": "NC[C@H]1O[C@H](O[C@H]2[C@H](O[C@@H]3O[C@H](CO)[C@@H](O[C@H]4O[C@@H](CO)[C@@H](O)[C@H](O)[C@H]4O)[C@H]3O)[C@@H](O)[C@H](N)C[C@@H]2N)[C@H](N)[C@@H](O)[C@@H]1O", "note": "[Compound 700, 2\"',6\"'-desamino-2\"'-6\"'-hydroxy neomycin B]", "values": [{"measurement": "RNA binding, affinity or specificity for AS-wt (in words)", "setting": "AS-wt; Example 4", "result": "virtually the same RNA binding profile"}]}, {"molecule": "NC[C@@H]1O[C@H](O[C@H]2[C@@H](O)[C@H](O[C@@H]3[C@@H](O)[C@H](N)C[C@H](N)[C@H]3O[C@H]3O[C@H](CN)[C@@H](O)[C@H](O)[C@H]3N)O[C@@H]2CO)[C@H](O)[C@@H](O)[C@@H]1O", "note": "[Compound 800, 2\"'-desamino-2\"'-hydroxy neomycin B]", "values": [{"measurement": "affinity improvement for AS-wt in relation to 700", "setting": "AS-wt", "result": 40, "unit": "fold"}, {"measurement": "Kd", "setting": "Neo16-bd; HBS-buffer, read-out: Kd, Neo16bd", "result": "< 10", "unit": "nM"}]}, {"molecule": "CN[C@H]1C[C@@H](N)[C@H](O)[C@@H](O[C@@H]2O[C@H](CO)[C@H](O)[C@@H]3OC4(O[C@H]23)O[C@H]([C@@H](N)CO)[C@H](O)[C@H](O)[C@H]4O)[C@@H]1O", "note": "(some centres unmarked) [Hygromycin B]", "values": [{"measurement": "specificity for AS-wt over negative controls (in words)", "setting": "AS-wt", "result": "none"}]}, {"molecule": "NCC1OC(OC2C(N)CC(N)C(OC3OC(CO)C(O)C(N)C3O)C2O)C(O)C(O)C1O", "note": "(centres unmarked) [Kanamycin A]", "values": [{"measurement": "specificity for AS-wt over negative controls (in words)", "setting": "AS-wt", "result": "only very moderate specificity for AS-wt"}, {"measurement": "binding to AS-U1406A mutant relative to AS-wt (in words)", "setting": "AS-U1406A", "result": "not increased in the U1406A mutant relative to AS-wt but rather decreased"}]}, {"molecule": "NC[C@H]1O[C@H](O[C@H]2[C@H](O)[C@@H](O[C@H]3O[C@H](CO)[C@@H](O)[C@H](N)[C@H]3O)[C@H](N)C[C@@H]2N)[C@H](N)[C@@H](O)[C@@H]1O", "note": "[Kanamycin B]", "values": [{"measurement": "specificity for AS-wt over negative controls (in words)", "setting": "AS-wt", "result": "only very moderate specificity for AS-wt"}, {"measurement": "binding to AS-U1406A mutant relative to AS-wt (in words)", "setting": "AS-U1406A", "result": "not increased in the U1406A mutant relative to AS-wt but rather decreased"}]}, {"molecule": "N[C@H]1[C@@H](O[C@H]2[C@H](O)[C@@H](O)[C@H](N)C[C@@H]2N)O[C@H](CO)[C@@H](O)[C@@H]1O", "note": "[Paromamine]", "values": [{"measurement": "specificity for AS-wt over negative controls (in words)", "setting": "AS-wt", "result": "substantial decrease in binding to AS-wt and a loss of most specificity"}]}, {"molecule": "NC[C@H]1O[C@H](O[C@H]2[C@H](O[C@@H]3O[C@H](CO)[C@@H](O)[C@H]3O)[C@@H](O)[C@H](N)C[C@@H]2N)[C@H](N)[C@@H](O)[C@@H]1O", "note": "[Ribostamycin]", "values": [{"measurement": "lower affinity for AS-wt relative to neamine", "setting": "AS-wt", "result": 3, "unit": "fold"}, {"measurement": "specificity for AS-wt over negative controls (in words)", "setting": "AS-wt", "result": "low"}, {"measurement": "binding to AS-U1406A mutant relative to AS-wt (in words)", "setting": "AS-U1406A", "result": "only weakly enhanced"}, {"measurement": "binding to Neo16bd (in words)", "setting": "Neo16-bd", "result": "bound more tightly to the aptamer than paromomycin"}]}, {"molecule": "NC[C@H]1O[C@H](O[C@H]2[C@H](O)[C@@H](O[C@H]3O[C@H](CO)[C@@H](O)[C@H](N)[C@H]3O)[C@H](N)C[C@@H]2N)[C@H](N)C[C@@H]1O", "note": "[Tobramycin]", "values": [{"measurement": "specificity for AS-wt over negative controls (in words)", "setting": "AS-wt", "result": "only very moderate specificity for AS-wt"}, {"measurement": "binding to AS-U1406A mutant relative to AS-wt (in words)", "setting": "AS-U1406A", "result": "not increased in the U1406A mutant relative to AS-wt but rather decreased"}]}, {"molecule": "Butirosin", "values": [{"measurement": "specificity for AS-wt over negative controls (in words)", "setting": "AS-wt", "result": "only moderate specificity for AS-wt"}, {"measurement": "binding to AS-U1406A mutant relative to AS-wt (in words)", "setting": "AS-U1406A", "result": "significantly enhanced"}]}, {"molecule": "Gentamycin", "values": [{"measurement": "specificity for AS-wt over negative controls (in words)", "setting": "AS-wt", "result": "only very moderate specificity for AS-wt"}, {"measurement": "binding to AS-U1406A mutant relative to AS-wt (in words)", "setting": "AS-U1406A", "result": "not increased in the U1406A mutant relative to AS-wt but rather decreased"}]}]}
